Data from patent US11590116B2 (THERAVANCE BIOPHARMA R&D IP, LLC, priority 2019, dated 2023).

Columns and labels:
[1] = system: TGF-β-stimulated SMAD3 phosphorylation in BEAS-2B cells; test: Cellular ALK5 potency assay, inhibition of TGF-β stimulated pSMAD3 formation in BEAS-2B cells; type: cell-based; conditions: Homo sapiens; inhibition of TGF-β stimulated pSMAD3 formation, BEAS-2B cells; read-out: BEAS2B pIC50 (converted)
Procedure, shortened: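 SMAD3 phosphorylation was measured by AlphaLISA after 30 min TGF-β stimulation (10 ng/mL final) of BEAS-2B cells preincubated 1 h with compound at 37 °C. Results given as pIC50.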

[2] = biological target: T1, recombinant human ALK5 (TGF-βR1) protein (Homo sapiens, UniProt P36897); test: Biochemical ALK5 (TGF-βR1) assay to measure pKi (LANCE Ultra ULight kinase assay); conditions: apparent pKi from pIC50 by Cheng-Prusoff, read-out: ALK5 pKi (converted)
T1 construct: purchased Life Technologies PR9075A
T1 sequence (P36897 34-503): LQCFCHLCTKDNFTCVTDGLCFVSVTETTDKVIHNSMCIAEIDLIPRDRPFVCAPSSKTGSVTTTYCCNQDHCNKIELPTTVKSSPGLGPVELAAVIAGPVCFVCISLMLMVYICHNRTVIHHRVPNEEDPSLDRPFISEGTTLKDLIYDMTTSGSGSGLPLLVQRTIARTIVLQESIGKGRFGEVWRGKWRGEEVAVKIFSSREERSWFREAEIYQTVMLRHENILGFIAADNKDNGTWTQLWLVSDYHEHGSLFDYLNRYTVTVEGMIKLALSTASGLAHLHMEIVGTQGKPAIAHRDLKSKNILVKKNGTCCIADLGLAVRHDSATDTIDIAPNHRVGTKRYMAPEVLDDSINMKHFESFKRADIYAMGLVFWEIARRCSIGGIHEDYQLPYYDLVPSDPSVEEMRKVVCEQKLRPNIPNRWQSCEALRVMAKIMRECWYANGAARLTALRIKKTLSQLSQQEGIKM
Procedure, shortened: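 After a 60 min room-temperature preincubation of ALK5 with compound, phosphorylation proceeds 60 min at 37 °C on ATP addition (125 μM as 5× stock). Detection: Eu-labelled phospho-Thr1342 Topo IIα antibody in EDTA buffer, pH 7.0; emission 665 nm.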

Structure (SMILES)	Ki [2] [nM]	IC50 [1] [nM]
Cc1cccc(-c2n[nH]cc2-c2ccc3ncc(-c4cnc(N)s4)cc3n2)n1 [Compound 333, 5-[6-[3-(6-methyl-2-pyridyl)-1H-pyrazol-4-yl]-1,5-naphthyridin-3-yl]thiazol-2-amine]	0.0398 to 0.316	25.1 to 158
Cc1cccc(-c2[nH]cnc2-c2ccc3ncc(NCCN4CCN(C(C)C)CC4)cc3n2)n1 [Compound 104, N-(2-(4-isopropylpiperazin-1-yl)ethyl)-6-(5-(6-methylpyridin-2-yl)-1H-imidazol-4-yl)-1,5-naphthyridin-3-amine]	0.0398 to 0.316	25.1 to 158
COc1ncccc1-c1cnc2ccc(-c3c[nH]nc3-c3cccc(C)n3)nc2c1 [Compound 61, 7-(2-methoxy-3-pyridyl)-2-[3-(6-methyl-2-pyridyl)-1H-pyrazol-4-yl]-1,5-naphthyridine]	0.0398 to 0.316	25.1 to 158
Cc1cccc(-c2n[nH]cc2-c2ccc3ncc(N4CC[C@@H](N5CCCCC5)C4)cc3n2)n1 [Compound 542, 2-[3-(6-methyl-2-pyridyl)-1H-pyrazol-4-yl]-7-[(3R)-3-(1-piperidyl)pyrrolidin-1-yl]-1,5-naphthyridine]	< 0.0316	25.1 to 158
CNCCn1ccc(-c2cnc3ccc(-c4c[nH]nc4-c4cccc(C)n4)nc3c2)n1 [Compound 229, N-methyl-2-[3-[6-[3-(6-methyl-2-pyridyl)-1H-pyrazol-4-yl]-1,5-naphthyridin-3-yl]pyrazol-1-yl]ethanamine]	< 0.0316	25.1 to 158
Cc1cccc(-c2[nH]cnc2-c2ccc3ncc(N4CC(CN)C4)cc3c2)n1 [Compound 68, [1-[6-[5-(6-methyl-2-pyridyl)-1H-imidazol-4-yl]-3-quinolyl]azetidin-3-yl]methanamine]	0.0398 to 0.316	< 20
CC(=O)N[C@H]1CC=C(c2cnc3ccc(-c4nc[nH]c4-c4cccc(C)n4)cc3c2)CC1 [Compound 691, N-[(1R)-4-[6-[5-(6-methyl-2-pyridyl)-1H-imidazol-4-yl]-3-quinolyl]cyclohex-3-en-1-yl]acetamide]	< 0.0316	< 20
Cc1cccc(-c2[nH]cnc2-c2ccc3ncc(C4=CCC(O)CC4)cc3c2)n1 (centres unmarked) [Compound 432, 4-[6-[5-(6-methyl-2-pyridyl)-1H-imidazol-4-yl]-3-quinolyl]cyclohex-3-en-1-ol]	< 0.0316	< 20
Cc1cccc(-c2[nH]cnc2-c2ccc3ncc(N4C[C@@H](C)N[C@@H](C)C4)cc3c2)n1 [Compound 148, 3-[(3R,5S)-3,5-dimethylpiperazin-1-yl]-6-[5-(6-methyl-2-pyridyl)-1H-imidazol-4-yl]quinoline]	0.0398 to 0.316	25.1 to 158
Cc1cccc(-c2n[nH]cc2-c2ccc3ncc(N4C[C@@H]5CCN[C@@H]5C4)cc3n2)n1 (racemic) [Compound 598, 2-[3-(6-methyl-2-pyridyl)-1H-pyrazol-4-yl]-7-[rac-(3aS,6aS)-2,3,3a,4,6,6a-hexahydro-1H-pyrrolo[2,3-c]pyrrol-5-yl]-1,5-naphthyridine]	< 0.0316	25.1 to 158
Cc1cccc(-c2n[nH]cc2-c2ccc3ncc(NC(C)(C)CN4CCN(C)CC4)cc3n2)n1 [Compound 556, N-[1,1-dimethyl-2-(4-methylpiperazin-1-yl)ethyl]-6-[3-(6-methyl-2-pyridyl)-1H-pyrazol-4-yl]-1,5-naphthyridin-3-amine]	0.398 to 3.16	25.1 to 158
Cc1cccc(-c2nc3sccn3c2-c2ccc3ncc(Br)cc3n2)n1 [Compound 511, 5-(7-Bromo-1,5-naphthyridin-2-yl)-6-(6-methylpyridin-2-yl)imidazo[2,1-b]thiazole]	0.398 to 3.16	25.1 to 158
Cc1cccc(-c2nnn(Cc3ccccc3)c2-c2ccc3ncc(N4CCNCC4)cc3n2)n1 [Compound 359, 2-(1-benzyl-4-(6-methylpyridin-2-yl)-1H-1,2,3-triazol-5-yl)-7-(piperazin-1-yl)-1,5-naphthyridine]	0.0398 to 0.316	25.1 to 158
Cc1cccc(-c2[nH]cnc2-c2ccc3ncc(-c4ccc(C(=O)OC5CCNCC5)cc4)cc3c2)n1 [Compound 310, 4-piperidyl 4-[6-[5-(6-methyl-2-pyridyl)-1H-imidazol-4-yl]-3-quinolyl]benzoate]	0.0398 to 0.316	25.1 to 158
Cc1cccc(-c2nnn(Cc3ccccc3)c2-c2ccc3ncc(-c4c[nH]nc4C(F)(F)F)cc3n2)n1 [Compound 288, 2-[3-benzyl-5-(6-methyl-2-pyridyl)triazol-4-yl]-7-[3-(trifluoromethyl)-1H-pyrazol-4-yl]-1,5-naphthyridine]	0.398 to 3.16	25.1 to 158
Cc1nc(-c2nc3ccccn3c2-c2ccc3ncc(N4CCCNCC4)cc3n2)ccc1F [Compound 84, 7-(1,4-diazepan-1-yl)-2-[2-(5-fluoro-6-methyl-2-pyridyl)imidazo[1,2-a]pyridin-3-yl]-1,5-naphthyridine]	0.0398 to 0.316	25.1 to 158
CNC1CCN(c2cnc3ccc(-c4c[nH]nc4-c4cccc(C)n4)nc3c2)CC1 [Compound 45, N-methyl-1-[6-[3-(6-methyl-2-pyridyl)-1H-pyrazol-4-yl]-1,5-naphthyridin-3-yl]piperidin-4-amine]	< 0.0316	25.1 to 158
CNCCn1cc(-c2cnc3ccc(-c4c(-c5cccc(C)n5)[nH]c5ncccc45)cc3c2)cn1 [Compound 306, N-methyl-2-(4-(6-(2-(6-methylpyridin-2-yl)-1H-pyrrolo[2,3-b]pyridin-3-yl)quinolin-3-yl)-1H-pyrazol-1-yl)ethan-1-amine]	< 0.0316	25.1 to 158
Cc1nc(-c2nc3ccccn3c2-c2ccc3ncc(N4CCC(N(C)C)C4)cc3n2)ccc1F (racemic) [Compound 347, rac-(3S)-1-[6-[2-(5-fluoro-6-methyl-2-pyridyl)imidazo[1,2-a]pyridin-3-yl]-1,5-naphthyridin-3-yl]-N,N-dimethyl-pyrrolidin-3-amine]	0.0398 to 0.316	25.1 to 158

Continued, in another order:

Ki [2] [nM]	Structure (SMILES)	IC50 [1] [nM]
0.0398 to 0.316	Cc1cccc(-c2[nH]cnc2-c2ccc3ncc(-c4ncc(CN5CCNCC5)s4)cc3c2)n1 [Compound 1055, 2-[6-[5-(6-methyl-2-pyridyl)-1H-imidazol-4-yl]-3-quinolyl]-5-(piperazin-1-ylmethyl)thiazole]	< 20
0.0398 to 0.316	Cc1cccc(-c2[nH]cnc2-c2ccc3ncc(C(=O)O[C@H]4CC[C@@](C)(N)CC4)cc3c2)n1 [Compound 768, (4-amino-4-methyl-cyclohexyl) 6-[5-(6-methyl-2-pyridyl)-1H-imidazol-4-yl]quinoline-3-carboxylate]	25.1 to 158
0.0398 to 0.316	Cc1cccc(-c2[nH]cnc2-c2ccc3ncc(-c4ccc(C(=O)OCCN5CC[C@@H](N)C5)cn4)cc3c2)n1 [Compound 1167, 2-[(3R)-3-aminopyrrolidin-1-yl]ethyl 6-[6-[5-(6-methyl-2-pyridyl)-1H-imidazol-4-yl]-3-quinolyl]pyridine-3-carboxylate]	25.1 to 158
0.0398 to 0.316	Cc1cccc(-c2n[nH]cc2-c2ccc3nccc(CN4CCOCC4)c3n2)n1 [Compound 811, 4-[[6-[3-(6-methyl-2-pyridyl)-1H-pyrazol-4-yl]-1,5-naphthyridin-4-yl]methyl]morpholine]	200 to 1260
0.0398 to 0.316	Cc1cccc(-c2[nH]cnc2-c2ccc3ncc(C(=O)O[C@H]4C[C@@H](N)C4)cc3c2)n1 [Compound 759, (3-aminocyclobutyl) 6-[5-(6-methyl-2-pyridyl)-1H-imidazol-4-yl]quinoline-3-carboxylate]	25.1 to 158
0.0398 to 0.316	Cc1cccc(-c2[nH]cnc2-c2ccc3ncc(-c4ccc(C(=O)OCCNC5CNC5)cn4)cc3c2)n1 [Compound 1192, 2-(azetidin-3-ylamino)ethyl 6-[6-[5-(6-methyl-2-pyridyl)-1H-imidazol-4-yl]-3-quinolyl]pyridine-3-carboxylate]	200 to 1260
3.98 to 31.6	Cc1cccc(-c2[nH]ncc2-c2ccc3nccc(C(=O)O[C@H]4CC[C@@H](N)CC4)c3c2)n1 [Compound 1199, (4-aminocyclohexyl) 6-[5-(6-methyl-2-pyridyl)-1H-pyrazol-4-yl]quinoline-4-carboxylate]	200 to 1260
0.398 to 3.16	Cc1cccc(-c2n[nH]cc2-c2ccc3nccc(NC(=O)CCCN4CCOCC4)c3n2)n1 [Compound 842, N-[6-[3-(6-methyl-2-pyridyl)-1H-pyrazol-4-yl]-1,5-naphthyridin-4-yl]-4-morpholino-butanamide]	25.1 to 158
0.0398 to 0.316	Cc1cccc(-c2[nH]cnc2-c2ccc3ncc(C4=CCN(C(=O)[C@@H]5CCCN5)CC4)cc3c2)n1 [Compound 779, [4-[6-[5-(6-methyl-2-pyridyl)-1H-imidazol-4-yl]-3-quinolyl]-3,6-dihydro-2H-pyridin-1-yl]-[(2S)-pyrrolidin-2-yl]methanone]	25.1 to 158
